US20220125930A1, “SYSTEM AND METHOD FOR FABRICATION OF LARGE, POROUS DRUG-SILK MATERIALS USING CRYOGRANULATION” (Trustees of Tufts College, priority 2019, published 2022)

Test system: bioluminescent S. aureus Xen29
Experiment: Kirby-Bauer disc diffusion test of antibiotic-loaded RSFPs
Assay type: cell-based
Conditions: zones of inhibition on XEN29 cultures after 12 hours, vs blank RSFPs
Protocol: Antimicrobial activity of tobramycin sulfate (TS), gentamicin sulfate (GS) and kanamycin sulfate (KS) encapsulated in RSFPs sized 100-500 mcm was assessed by Kirby-Bauer disc diffusion tests, performed according to methods outlined in the NCCLS Approved Standard M2-A7. A stock suspension of bioluminescent S. aureus Xen29 was prepared in sterile physiological solution and turbidity (expressed as optical density; OD) was adjusted against the McFahrland standard to match the 0.5 level. A sterilized cotton swab was immersed in the bacterial suspension, and a lawn of bacteria was applied on the Luria Bertani (LB) plates. A 10-mm biopsy punch was used to cut two circular fragments from each of the freshly infected plates, and both fragments were coated with antibiotic-loaded RSFPs by quick blotting against the pool of particles. The freshly mounted samples were inserted […] II system (Caliper life Science, America). The exposure time (1 s), excitation filter (430 nm), and emission filter with emission wavelength from 575 to 650 nm (DsRed) were set prior to detection.

Substance	post-processing antimicrobial activity (antibiotic function) of cryoencapsulated antibiotics
tobramycin sulfate [TS]	preserved
gentamicin sulfate [GS]	preserved
